Results as given in US5955489A, “Taxane derivatives, the preparation thereof and formulations containing them” (Indea S.p.A., priority 1996, dated 1999).
Where two headings read alike, the source gives them in different places.

How the values were obtained:
[1] = tested on: Line MDA (normal ovary cell line); assay: cytotoxicity on a normal ovary cell line (Line MDA); format: cell-based; settings: read-out: IC50 Line MDA
[2] = tested on: Line MCF7-ADRr (adriamycin-resistant); assay: cytotoxicity on an adriamycin-resistant cell line (Line MCF7-ADRr); format: cell-based; settings: read-out: IC50 Line MCF7-ADRr
[3] = Line MDA, normal ovary cell line

Compound | IC50 [1] [nM] | IC50 [2] [nM] | IC50 [1, 3] [nM] | IC50 ([2]; Line MCF7-ADRr, adriamycin-resistant) [nM]
CC(=O)O[C@H]1C(=O)[C@@]2(C)[C@H]([C@H](OC(=O)c3ccccc3)[C@]3(O)C[C@H](OC(=O)[C@H](O)[C@@H](NC(=O)c4ccccc4)c4ccccc4)C(C)=C1C3(C)C)[C@]1(OC(C)=O)CO[C@@H]1C[C@@H]2O [Paclitaxel, reference compound] | 2.4 | 2600 |  | 
CC(=O)O[C@@]12CO[C@@H]1C[C@H](O)[C@@]1(C)C(=O)[C@H](O)C3=C(C)[C@@H](OC(=O)[C@H](O)[C@@H](NC(=O)OC(C)(C)C)c4ccccc4)C[C@@](O)([C@@H](OC(=O)c4ccccc4)[C@H]21)C3(C)C [Docetaxel, reference compound] |  |  | 0.8 | 700
CC(=O)O[C@@]12CO[C@@H]1CC1NN=C3C(=O)C4=C(C)[C@@H](OC(=O)[C@H](O)[C@@H](NC(=O)c5ccccc5)c5ccccc5)C[C@@](O)([C@@H](OC(=O)c5ccccc5)[C@H]2[C@]31C)C4(C)C (stereo partly drawn) [Compound of example 2, 10-deacetyl-10-dehydro-Paclitaxel pyrazoline] | 3.1 |  |  | 
CC(=O)O[C@@]12CO[C@@H]1CC1NN=C3C(=O)C4=C(C)[C@@H](OC(=O)[C@H](O)[C@@H](NC(=O)OC(C)(C)C)c5ccccc5)[C@@H]5OC(=O)O[C@]5([C@@H](OC(=O)c5ccccc5)[C@H]2[C@]31C)C4(C)C (stereo partly drawn) [Compound of example 6, 13-(N-Boc-phenyl-isoserinyl)-1,14-carbonate10-dehydro-10-deacetyl-baccatine III pyrazoline] | 2.1 |  |  | 
13-(N-Boc-phenylisoserinyl)-10-dehydro-10-deacetyl-baccatine III pyrazoline [Compound of example 4] |  | 264 | 1.2 | 
CC(=O)O[C@@]12CO[C@@H]1CC1NN=C3C(=O)C4=C(C)[C@@H](OC(=O)[C@H](O)[C@H](CC(C)C)NC(=O)OC(C)(C)C)C[C@@](O)([C@@H](OC(=O)c5ccccc5)[C@H]2[C@]31C)C4(C)C (stereo partly drawn) [Compound of example 5, 13-(N-Boc-3'-isobutyl)-isoserinyl-10-dehydrobaccatine III pyrazoline] | 1.4 |  |  | 
